Here are results for 18 molecules from patent US12390532B2, “ALK protein regulator and anti-tumor application thereof” (SHANGHAITECH UNIVERSITY, priority 2019, dated 2025).

The subject of one test is SR cells (NPM-ALK, human anaplastic large cell lymphoma cells). The test is described as follows: Proliferation inhibition (IC50) in SR cells, CCK8 (WST) reagent. The test is classed as cell-based. The note with it: 72 h, SR cells, WST reagent, 72 hours, read-out: IC50 (half inhibitory concentration), Brigatinib series in lymphoma cell lines. As for the experimental part:
The ALK gene rearrangement positive cell line used was SR cells (NPM-ALK, human anaplastic large cell lymphoma cells). MDA-MB231 was a triple-negative breast cancer cell. Both SR cells and MDA-MB231 cells were purchased from ATCC.
The tumor cell line used was daily cultured in a 37° C. incubator containing 5% CO2. The medium was RPMI1640 supplemented with 10% FCS and Penicillin-Streptomycin.
The IC50 of the compound of the present disclosure was determined using Promega's Cell Titer Blue, Cell Titer GLO or commercially available WST reagents. The specific steps were as follows: the cells were seeded in a 96-well plate containing 100 microliters of RPMI medium containing serum at a number of 2000 cells/well. On the second day, the original drug and the compound of the present disclosure were serially diluted and added to the cells. After 72 hours of treatment with the compound of the present disclosure, the cell activity detection reagent was added to the culture medium for cell activity determination according to the instructions. The negative control was DMSO, and the positive control was the original drug, and the cells were treated in the same manner as the compound of the present disclosure. The growth inhibition of the compounds of the present disclosure on cells was plotted by Prism Graphpad software and the IC50 of the compounds of the present disclosure was counted from it.
We conducted dose-dependent experiments on the designed and synthesized compounds of the present disclosure in SR cells. […] The cells were treated with different concentrations of compounds (starting at 10 μM, 3 times dilution factor, 10 concentrations). After 72 hours, the cells were detected using CCK8 reagent (WST).
For the molecule `COc1cc(N2CCC(N3CCN(C(=O)COCCOCCNc4cccc5c4CN(C4CCC(=O)NC4=O)C5=O)CC3)CC2)ccc1Nc1ncc(Cl)c(Nc2ccccc2P(C)(C)=O)n1` (stereo not drawn) [SIAIS352054, 3-(4-((2-(2-(2-(4-(1-(4-((5-chloro-4-((2-(dimethylphosphono)phenyl)amino)pyrimidine-2-yl)amino)-3-methoxyphenyl)piperidin-4-yl)piperazin-1-yl)-2-oxoethoxy)ethoxy)ethyl)amino)-1-oxoisoindolin-2-yl)piperidine-2,6-dione], the IC50 came to 22 ± 10.9 nM.

On to `COc1cc(N2CCC(N(C)CCCC#Cc3cccc4c3CN(C3CCC(=O)NC3=O)C4=O)CC2)ccc1Nc1ncc(Cl)c(Nc2ccccc2P(C)(C)=O)n1` (stereo not drawn) [SIAIS353050, 3-(4-(5-((1-(4-((5-chloro-4-((2-(dimethylphosphono)phenyl)amino)pyrimidin-2-yl)amino)-3-methoxyphenyl)piperidin-4-yl)(methyl)amino)pent-1-yn-1-yl)-1-oxoisoindolin-2-yl)piperidine-2,6-dione], for which the IC50 was 4.8 ± 0.1 nM.

As for `COc1cc(N2CCC(N3CCN(CCCC#Cc4cccc5c4C(=O)N(C4CCC(=O)NC4=O)C5=O)CC3)CC2)ccc1Nc1ncc(Cl)c(Nc2ccccc2P(C)(C)=O)n1` (stereo not drawn) [SIAIS352010, 4-(5-(4-(1-(4-((5-chloro-4-((2-(dimethylphosphono)phenyl)amino)pyrimidin-2-yl)amino)-3-methoxyphenyl)piperidin-4-yl)piperazin-1-yl)pent-1-yn-1-yl)-2-(2,6-dioxopiperidin-3-yl)isoindoline-1,3-dione], the IC50 came out at 19 ± 5.8 nM.

For the molecule `COc1cc(N2CCC(N3CCN(CCCCCC#Cc4cccc5c4CN(C4CCC(=O)NC4=O)C5=O)CC3)CC2)ccc1Nc1ncc(Cl)c(Nc2ccccc2P(C)(C)=O)n1` (stereo not drawn) [SIAIS293015, 3-(4-(7-(4-(1-(4-((5-chloro-4-((2-(dimethylphosphono)phenyl)amino)pyrimidin-2-yl)amino)-3-methoxyphenyl)piperidin-4-yl)piperazin-1-yl)hept-1-yn-1-yl)-1-oxoisoindolin-2-yl)piperidine-2,6-dione], the IC50 was 1.2 nM.

For the molecule `COc1cc(N2CCC(N(C)CCCCSc3cccc4c3CN(C3CCC(=O)NC3=O)C4=O)CC2)ccc1Nc1ncc(Cl)c(Nc2ccccc2P(C)(C)=O)n1` (stereo not drawn) [SIAIS353043, 3-(4-((4-((1-(4-((5-chloro-4-((2-(dimethylphosphono)phenyl)amino)pyrimidin-2-yl)amino)-3-methoxyphenyl)piperidin-4-yl) (methyl)amino)butyl)thio)-1-oxoisoindolin-2-yl)piperidine-2,6-dione], the IC50 amounted to 0.9 ± 0.2 nM.

With `COc1cc(N2CCC(N3CCN(C(=O)COCCOCCOCCOCCOCCNc4cccc5c4CN(C4CCC(=O)NC4=O)C5=O)CC3)CC2)ccc1Nc1ncc(Cl)c(Nc2ccccc2P(C)(C)=O)n1` (stereo not drawn) [SIAIS352057, 3-(4-((17-(4-(1-(4-((5-chloro-4-((2-(dimethylphosphono)phenyl)amino)pyrimidin-2-yl)amino)-3-methoxyphenyl)piperidin-4-yl)piperazin-1-yl)-17-oxo-3,6,9,12,15-pentaoxaheptadecyl)amino)-1-oxoisoindolin-2-yl)piperidine-2,6-dione], the IC50 worked out at 102 ± 43.9 nM.

For `COc1cc(N2CCC(N3CCN(C(=O)NCCCCSc4cccc5c4CN(C4CCC(=O)NC4=O)C5=O)CC3)CC2)ccc1Nc1ncc(Cl)c(Nc2ccccc2P(C)(C)=O)n1` (stereo not drawn) [SIAIS353062, 4-(1-(4-((5-chloro-4-((2-(dimethylphosphono)phenyl)amino)pyrimidin-2-yl)amino)-3-methoxyphenyl)piperidin-4-yl)-N-(4-((2-(2,6-dioxopiperidin-3-yl)-1-oxoisoindolin-4-yl)thio)butyl)piperazine-1-carboxamide], the IC50 is 0.6 ± 0.4 nM.

Consider `COc1cc(N2CCC(N(C)CCCCCSc3cccc4c3CN(C3CCC(=O)NC3=O)C4=O)CC2)ccc1Nc1ncc(Cl)c(Nc2ccccc2P(C)(C)=O)n1` (stereo not drawn) [SIAIS353044, 3-(4-((5-((1-(4-((5-chloro-4-((2-(dimethylphosphono)phenyl)amino)pyrimidin-2-yl)amino)-3-methoxyphenyl)piperidin-4-yl)(methyl)amino)pentyl)thio)-1-oxoisoindolin-2-yl)piperidine-2,6-dione], for which the IC50 amounted to 1.1 ± 0.2 nM.

For `COc1cc(N2CCC(N3CCN(C(=O)COCCOCCOCCOCCNc4cccc5c4CN(C4CCC(=O)NC4=O)C5=O)CC3)CC2)ccc1Nc1ncc(Cl)c(Nc2ccccc2P(C)(C)=O)n1` (stereo not drawn) [SIAIS352056, 3-(4-((14-(4-(1-(4-((5-chloro-4-((2-(dimethylphosphono)phenyl)amino)pyrimidin-2-yl)amino)-3-methoxyphenyl)piperidin-4-yl)piperazin-1-yl)-14-oxo-3,6,9,12-tetraoxatetradecyl)amino)-1-oxoisoindolin-2-yl)piperidine-2,6-dione], the IC50 was found to be 84.5 ± 17.3 nM.

Staying with this test, now noted: 72 h, read-out: IC50 (half inhibitory concentration), Alectinib series in lymphoma cell lines, SR cells, WST reagent, 72 hours.
Regarding `CCc1cc2c(cc1N1CCC(N3CCN(CCCCCc4cccc5c4CN(C4CCC(=O)NC4=O)C5=O)CC3)CC1)C(C)(C)c1[nH]c3cc(C#N)ccc3c1C2=O` (stereo not drawn) [SIAIS350083, 8-(4-(4-(5-(2-(2,6-dioxopiperidin-3-yl)-1-oxoisoindolin-4-yl)pentyl)piperazin-1-yl)piperidin-1-yl)-9-ethyl-6,6-dimethyl-11-oxo-6,11-dihydro-5H-benzo[b]carbazole-3-carbonitrile], the IC50 amounted to 1.1 ± 0.7 nM.

For the molecule `CCc1cc2c(cc1N1CCC(N3CCN(CCCCCC#Cc4cccc5c4CN(C4CCC(=O)NC4=O)C5=O)CC3)CC1)C(C)(C)c1[nH]c3cc(C#N)ccc3c1C2=O` (stereo not drawn) [SIAIS293014, 8-(4-(4-(7-(2-(2,6-dioxopiperidin-3-yl)-1-oxoisoindolin-4-yl)hept-6-yn-1-yl)piperazin-1-yl)piperidin-1-yl)-9-ethyl-6,6-dimethyl-11-oxo-6,11-dihydro-5H-benzo[b]carbazole-3-carbonitrile], the IC50 was 3.2 nM.

Regarding `CCc1cc2c(cc1N1CCC(N3CCN(C(=O)CCCNc4cccc5c4CN(C4CCC(=O)NC4=O)C5=O)CC3)CC1)C(C)(C)c1[nH]c3cc(C#N)ccc3c1C2=O` (stereo not drawn) [SIAIS262092, 8-(4-(4-(4-((2-(2,6-dioxopiperidin-3-yl)-1-oxoisoindolin-4-yl)amino)butyryl)piperazin-1-yl)piperidin-1-yl)-9-ethyl-6,6-dimethyl-11-oxo-6,11-dihydro-5H-benzo[b]carbazole-3-carbonitrile], the IC50 worked out at 1.37 ± 0.87 nM.

In the case of `CCc1cc2c(cc1N1CCC(N3CCN(C(=O)CCCCNc4cccc5c4CN(C4CCC(=O)NC4=O)C5=O)CC3)CC1)C(C)(C)c1[nH]c3cc(C#N)ccc3c1C2=O` (stereo not drawn) [SIAIS262093, 8-(4-(4-(5-((2-(2,6-dioxopiperidin-3-yl)-1-oxoisoindolin-4-yl)amino)pentanoyl)piperazin-1-yl)piperidin-1-yl)-9-ethyl-6,6-dimethyl-11-oxo-6,11-dihydro-5H-benzo[b]carbazole-3-carbonitrile], the IC50 worked out at 2.65 ± 1.72 nM.

Take `CCc1cc2c(cc1N1CCC(N3CCN(CCCCC#Cc4cccc5c4CN(C4CCC(=O)NC4=O)C5=O)CC3)CC1)C(C)(C)c1[nH]c3cc(C#N)ccc3c1C2=O` (stereo not drawn) [SIAIS293002, 8-(4-(4-(6-(2-(2,6-dioxopiperidin-3-yl)-1-oxoisoindolin-4-yl)hex-5-yn-1-yl)piperazin-1-yl)piperidin-1-yl)-9-ethyl-6,6-dimethyl-11-oxo-6,11-dihydro-5H-benzo[b]carbazole-3-carbonitrile]: the IC50 is 2.9 nM.

On to `CCc1cc2c(cc1N1CCC(N3CCNCC3)CC1)C(C)(C)c1[nH]c3cc(C#N)ccc3c1C2=O` [Alectinib derivative C (SIAIS184192), 9-Ethyl-6,6-dimethyl-11-oxo-8-(4-(piperazin-1-yl)piperidin-1-yl)-6,11-dihydro-5H-benzo[b]carbazole-3-carbonitrile], for which the IC50 was found to be 10.1 ± 4.3 nM.

Take `CCc1cc2c(cc1N1CCC(NC(=O)CCCCNc3cccc4c3CN(C3CCC(=O)NC3=O)C4=O)CC1)C(C)(C)c1[nH]c3cc(C#N)ccc3c1C2=O` (stereo not drawn) [SIAIS293012, N-(1-(3-cyano-9-ethyl-6,6-dimethyl-11-oxo-6,11-dihydro-5H-benzo[b]carbazol-8-yl)piperidin-4-yl)-5-((2-(2,6-dioxopiperidin-3-yl)-1-oxoisoindolin-4-yl)amino)pentanamide]: the IC50 turned out to be 10.3 ± 5.1 nM.

For `CCc1cc2c(cc1N1CCN(CCCCCc3cccc4c3CN(C3CCC(=O)NC3=O)C4=O)CC1)C(C)(C)c1[nH]c3cc(C#N)ccc3c1C2=O` (stereo not drawn) [SIAIS350081, 8-(4-(5-(2-(2,6-dioxopiperidin-3-yl)-1-oxoisoindolin-4-yl)pentyl)piperazin-1-yl)-9-ethyl-6,6-dimethyl-11-oxo-6,11-dihydro-5H-benzo[b]carbazole-3-carbonitrile], the IC50 is 6.5 ± 4 nM.

`CCc1cc2c(cc1N1CCC(N3CCN(CCCCc4cccc5c4CN(C4CCC(=O)NC4=O)C5=O)CC3)CC1)C(C)(C)c1[nH]c3cc(C#N)ccc3c1C2=O` (stereo not drawn) [SIAIS293005, 8-(4-(4-(4-(2-(2,6-dioxopiperidin-3-yl)-1-oxoisoindolin-4-yl)butyl)piperazin-1-yl)piperidin-1-yl)-9-ethyl-6,6-dimethyl-11-oxo-6,11-dihydro-5H-benzo[b]carbazole-3-carbonitrile]: the IC50 turned out to be 1.9 nM.
